According to US20240415919A1, “COMPOSITIONS AND METHODS FOR TREATMENT OF AUTOIMMUNE DISORDERS AND CANCER” (Dana-Farber Cancer Institute, Inc., priority 2021, published 2024):
Entries after “also recorded” stand apart in the source; their conditions may differ.

Experiments:
[1] = test system: FL9 T cells; assay: In vitro FL9 T cell proliferation and killing of activated CD4 cells; format: cell-based
[2] = test system: fully-mismatched kidney transplants; assay: BALB/c to B6 kidney transplantation with FL9-SA vaccination; format: in vivo, mouse
Protocol: The left kidney of BALB/c mice (H-2^d) was recovered using a full-length ureter and transplanted into a B6 host (H-2^b). The ureter of the remaining native kidney was then ligated on post-operative day 2-4 to inhibit native kidney function. Surgical success was determined if mice survived seven days post-surgery (POD). Transplanted B6 hosts were treated intraperitoneally with FL9-SA (50 μg), or PBS emulsified in Adjuvant (Addavax™), once a week starting POD2. On day 20 following kidney transplantation (n=5-7/group), allograft draining lymphoid tissues were assessed for FL9-specific Treg (Qa-1-FL9 Tet^+), Tfh, GC B and plasma cells, DSA levels in sera, capillary C4d deposition and gross anatomy of kidney allografts. Survival of kidney allografts was measured by survival of recipients with absence of native kidney function.

[3] = test system: EL4 tumor cells (Qa-1+); assay: EL4 tumor growth in B6 mice; format: in vivo, mouse; settings: EL4 (Qa-1 WT) in B6 mice; vs isotype control / IFA alone; listed as FL9-68 SA
Protocol: FIG. 9A-B provides a graphical representation showing that the depletion of CD8 Treg enhances anti-tumor immune responses. WT B6 mice were inoculated with 2×10^5 EL4 (Qa-1 WT) orEL4-Qa-1 KO cells. Mice received EL4 WT or EL4 Qa-1 KO cells were treated with four different conditions: 1) PBS/IFA+ isotype control Ab (mIgG1), 2) PBS/IFA+ anti-Ly49F Ab, 3) PBS/IFA+anti-Qa-1 Ab and 4) FL9.68/IFA+isotype Ab (mIgG1). 100 ug of FL9.68 peptide (day 0 and day 10), 50 ug of anti-Ly49F Ab and 100 ug of anti-Qa-1 Ab (day 0, 3 and 6) were injected respectively. A) Status of Ly49+CD8 cells in the blood at day 3 and 6 after tumor induction (panel A). Tumor growth in mice inoculated with EL4 WT (left) andEL4 Qa-1 KO (right) tumor cells until day 7. […] This effect was not observed in mice inoculated with EL4-Qa-1KO tumor cells (panel B).

[4] = test system: Balb/C heart allografts; assay: Balb/C heart transplantation into skin-sensitized B6 hosts after peptide vaccination; settings: for heart graft survival: compared to adjuvant alone; for graft pathology (C4d deposition, immune cell infiltration): heart allografts; for donor-specific antibody (DSA): heart graft / skin-sensitized recipients
Protocol: After selecting FL9-SA, we performed BALB/c to B6 skin transplantation with or without Hsp60p2l6 and FL9-SA, followed by heart transplantation.
B6 mice were immunized i.p with 50 μg FL9-68/IFA or with IFA alone at day 0 and 7 followed by a BALB/C→B6 skin transplant at day 10. FL9-68/IFA or IFA immunization was repeated on days 10, 13 and 16. At day 27, fully vascularized Balb/C hearts were transplanted into the abdominal cavity of B6 mice using microsurgical techniques, as previously described (Cai et al., 2016). Heart graft survival was determined by monitoring palpable heart beating. At day X after skin sensitization, levels of FL9 T cells, Tfh, GC B and plasma cells in dLNs were analyzed by flowcytometry. Serum was collected from the heart graft recipient B6 mice that were either immunized with FL9-68/IFA or IFA alone at day 16. […] Histological analysis of heart grafts was performed by InvivoEx company using anti-C4d Ab (Hycult Biotech) and Vector Blue Alkaline Phosphatase Substrate Kit (Vector Laboratories).
B6 mice were immunized i.p with 50 μg FL9-68-Adjuvant (IFA or AddaVax™) or Adjuvant alone at day 0 and 7 followed by a BALB/C→B6 skin transplant at day 10. FL9-68-Adj or Adj immunization was repeated on days 10, 13 and 16. At day 27, fully vascularized Balb/C hearts were transplanted into the abdominal cavity of B6 mice using microsurgical techniques, as previously described^36. Heart graft survival was determined by monitoring palpable heart beating. At day 16 after skin sensitization, levels of FL9 T cells, Tfh, GC B and plasma cells in dLNs were analyzed by flowcytometry. Serum was collected from the heart graft recipient B6 mice that were either immunized with FL9-68/IFA or IFA alone at day 16. […] Histological analysis of heart grafts was performed by InvivoEx company using anti-C4d Ab (Hycult Biotech) and Vector Blue Alkaline Phosphatase Substrate Kit (Vector Laboratories).

[5] = test system: FL9 T cells; assay: Activation (CD69) of FL9 TCR+ hybridoma / FL9 T cells by peptide-loaded EL4 (Qa-1+) cells; format: cell-based, mouse; settings: 0, 1, 3 and 10 μg/ml, compared with cognate FL9 self-peptide
Protocol: FIG. 4 provides a graphical representation showing a Qa-1-peptide yeast library, which identified peptides with superagonistic activity. FL9 T cells were stimulated with EL4 (Qa-1+) cells in the presence of surrogate peptides selected from peptide-Qa-1 yeast library for 3 days. Activation status of FL9 T cells was measured by CD69 expression.
FIG. 58A-C and FIG. 58D-E provides representation showing identification of superagonists for FL9 T cells. FIG. 58(A) provides a schematic showing a library composed of 96 FL9 peptide variants (crude peptides) was generated by aa mutagenesis at the Qa-1 anchoring positions (p2, p3, p6, p^7 and p9). FL9 TCR^+ hybridomas were incubated with EL4 cells (Qa-1^+) loaded with each FL9 peptide variant for 12 hrs and CD69 expression and TCR downregulation were measured as an indication of TCR stimulation. […] Expression of Vα3.2 and Vβ5 on EL4 cells (trogocytosis) was measured (right). […] Dose-dependent activation of FL9 T cells was measured by culturing FL9.2 T cells with EL4 (Qa-1^+) at various concentrations of indicated peptides (0, 1, 3 and 10 μg/ml). […] Six days later, proliferation of FL9.2 T cells (CD45.2^+Vα3.2^+VD5^+) was measured by CFSE dilution (left). CD45.1^+ B6 mice were immunized with Ova323-339 peptide in CFA on day 6 and the frequency of I-A^b/Ova323-339 Tet^+ CD4 cells in activated (CD44^+) CD4 cells was analyzed on day 14. […]

## FYAEATLML [FL9-68, FL9 peptide variant containing a P→L substitution at pos 7; superagonist for CD8 Treg]
[1]
  proliferation of FL9 T cells and killing of activated CD4 cells: promoted proliferation of FL9 T cells leading to enhanced killing of activated CD4 cells
[2]; CD4+ T cells from B6 hosts
  CD44+ CD4 T-cell memory responses to irradiated donor lymphocytes: reduced CD44^+ CD4 T-cell memory responses
[2]; allograft-draining lymph nodes, day 20 after kidney transplantation
  increase in FL9-specific Treg measured by FL9-Qa-1 tetramers: > 7 fold
[2]; controls 20.5 days
  mean survival time of kidney allograft: 40 days
[2]; kidney graft recipients
  donor-specific antibody (DSA): markedly reduced donor specific Ab generation; also recorded: significant decrease in DSA
[2]; kidney graft recipients, vs IFA alone
  GC response: frequency of Tfh, activated GC B and plasma cells: markedly reduced the GC response
[2]; mouse, in vivo
  C4d deposition in peritubular capillaries of kidney allografts: reduced C4d deposition
[3]
  EL4 tumor growth: facilitated tumor growth
[4]; B6 mice bearing Balb/C skin allograft
  increase in FL9-specific CD8 cells within the Ly49+ CD8 T cell pool: 4-5 fold
[4]
  heart graft survival: significantly prolonged graft survival times; also recorded: promotes graft survival
  graft pathology (C4d deposition, immune cell infiltration): markedly diminished graft pathology; also recorded: inhibits graft tissue injury
  donor-specific antibody (DSA): decrease of donor specific Ab (DSA) generation; also recorded: reduced donor-specific antibody (DSA) responses; also recorded: inhibits production of DSA
[4]; listed as SA peptide
  heart graft survival: significantly prolonged graft survival
[4]; listed as FL9 SA peptide
  graft pathology (C4d deposition, immune cell infiltration): maintenance of tissue integrity
  donor-specific antibody (DSA): reduced generation of donor specific antibodies
[4]; heart graft recipients, vs IFA alone
  GC response: Tfh, GC B and plasma cells: significant reduction of these cells; also recorded: decreased Tfh, GC B and plasma cell formation; also recorded: significantly reduced GC responses; also recorded: inhibition of GC Ab response
[4]; recipient CD4 cells co-incubated with irradiated donor splenocytes
  alloreactive activated CD4 cells: decrease in alloreactive activated CD4 cells
[4]; reduction in Tfh and mature B cells during sensitization, listed as FL9-SA
  efficacy relative to Hsp60p216: substantially more efficacious than Hsp60p2l6
[5]
  stimulatory activity for FL9 T cells / FL9.2 and FL9.8 TCRs (CD69 expression): superior ability to activate FL9 T cells; also recorded: superior ability to stimulate FL9 T cells; also recorded: markedly enhanced dose-dependent stimulatory activity; also recorded: significantly enhanced stimulating activity in vitro and in vivo; also recorded: significantly enhanced stimulatory activity in vitro and in vivo
